Test results reported in patent publication US9611248B2, “Chemical compounds” (Syngenta Participations AG, priority 2013, dated 2017).

System: a variety of test species
Test: Post-emergence herbicidal activity
Type: in vivo
Set-up: key to ABUTH (Abutilon theophrasti) damage score / AMARE (Amaranthus retroflexus) damage score / ALOMY (Alopecurus myosuroides) damage score / ECHCG (Echinochloa crus-galli) damage score / ZEAMX (Zea mays) damage score / SOLNI (Solanum nigrum) damage score: 0 = no damage to plant, 5 = total damage to plant
Settings: rate 1000 g/ha, evaluated after 13 days
Procedure, shortened: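 Damage on a 0–5 scale (5 = plant killed) was rated 13 days after treatment. Test species had been sown in standard soil and raised 8 days under glasshouse conditions of 24/16 °C, 14 h light, 65% humidity. They were then sprayed with aqueous solution from an acetone/water 50:50 formulation containing 0.5% Tween 20.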

| Structure (SMILES) | ABUTH (Abutilon theophrasti) damage score | ALOMY (Alopecurus myosuroides) damage score | AMARE (Amaranthus retroflexus) damage score | ECHCG (Echinochloa crus-galli) damage score | SETFA (Setaria faberi) damage score | ZEAMX (Zea mays) damage score |
| --- | --- | --- | --- | --- | --- | --- |
| COC1=C(C)C(=O)N(c2cc(C(F)(F)F)c(-c3ccccc3)cn2)C1O (stereo not drawn) [AD128] | 5 | 3 | 5 | 5 | 5 | 2 |
| COC1=C(C)C(=O)N(c2cc(C(F)(F)F)c(-c3ccccc3[N+](=O)[O-])cn2)C1O (stereo not drawn) [AD129] | 5 | 2 | 5 | 4 | 4 | 2 |
| COC1=C(C)C(=O)N(c2cc(C(F)(F)F)c(-c3ccc(F)cc3F)cn2)C1O (stereo not drawn) [AD131] | 5 | 2 | 5 | 4 | 4 | 1 |
| COC1=C(C)C(=O)N(c2cc(C(F)(F)F)c(-c3ccccc3C)cn2)C1O (stereo not drawn) [AD132] | 5 | 2 | 5 | 4 | 5 | 2 |
| COC1=C(C)C(=O)N(c2cc(C(F)(F)F)c(-c3cccc(F)c3)cn2)C1O (stereo not drawn) [AD133] | 5 | 2 | 5 | 4 | 4 | 3 |
| COC1=C(C)C(=O)N(c2cc(Cl)c(-c3ccsc3)cn2)C1O (stereo not drawn) [AD134] | 3 | 1 | 5 | 2 | 5 | 1 |
| COC1=C(Br)C(O)N(c2cc(C(F)(F)F)ccn2)C1=O (stereo not drawn) [AE1, 3-bromo-2-hydroxy-4-methoxy-1-[4-(trifluoromethyl)-2-pyridyl]-2H-pyrrol-5-one] | 4 | 3 | 5 | 5 | 3 | 0 |
| COC1=C(Br)C(O)N(c2cc(C(C)(C)C)ccn2)C1=O (stereo not drawn) [AE2] | 4 | 1 | 2 | 2 | 4 | 1 |
| COC1=C(Cl)C(O)N(c2cc(C(C)(C)C)ccn2)C1=O (stereo not drawn) [AF1] | 5 | 2 | 5 | 4 | 4 | 1 |
| COC1=C(Cl)C(O)N(c2cc(C(F)(F)F)ccn2)C1=O (stereo not drawn) [AF2] | 5 | 4 | 5 | 5 | 5 | 3 |
| COC1=C(Cl)C(O)N(c2cc(C(C)(F)F)ccn2)C1=O (stereo not drawn) [AF3] | 5 | 3 | 5 | 5 | 5 | 1 |
| COc1nnc(N2C(=O)C(C)=C(Cl)C2O)cc1C (stereo not drawn) [BA1] | 2 | 2 | 3 | 1 | 2 | 1 |
